Measured values from PMC10003107, “Selectivity of Hydroxamate- and Difluoromethyloxadiazole-Based Inhibitors of Histone Deacetylase 6 In Vitro and in Cells” (International Journal of Molecular Sciences, 2023).
Where “and” joins values, the source holds several entries; their conditions need not be identical. Equal values may be shown once.

Legend:
[1] = molecular target: T1, HDAC10 (Homo sapiens, UniProt Q969S8); assay: In vitro deacetylation assay, HDAC10 (fluorescein-labeled N8-acetylspermidine, RP-HPLC); format: biochemical; details: for IC50: purified human HDAC10, read-out: IC50 HDAC10; for SI (HD6/HD10): ratio of IC50 HDAC10 divided by IC50 HDAC6
T1 construct: HDAC10 1 – 667 Open Biosystems; Strep-FLAG-HALO (N); made in house; host or cells: HEK293/T17
T1 sequence (Q969S8 1-667): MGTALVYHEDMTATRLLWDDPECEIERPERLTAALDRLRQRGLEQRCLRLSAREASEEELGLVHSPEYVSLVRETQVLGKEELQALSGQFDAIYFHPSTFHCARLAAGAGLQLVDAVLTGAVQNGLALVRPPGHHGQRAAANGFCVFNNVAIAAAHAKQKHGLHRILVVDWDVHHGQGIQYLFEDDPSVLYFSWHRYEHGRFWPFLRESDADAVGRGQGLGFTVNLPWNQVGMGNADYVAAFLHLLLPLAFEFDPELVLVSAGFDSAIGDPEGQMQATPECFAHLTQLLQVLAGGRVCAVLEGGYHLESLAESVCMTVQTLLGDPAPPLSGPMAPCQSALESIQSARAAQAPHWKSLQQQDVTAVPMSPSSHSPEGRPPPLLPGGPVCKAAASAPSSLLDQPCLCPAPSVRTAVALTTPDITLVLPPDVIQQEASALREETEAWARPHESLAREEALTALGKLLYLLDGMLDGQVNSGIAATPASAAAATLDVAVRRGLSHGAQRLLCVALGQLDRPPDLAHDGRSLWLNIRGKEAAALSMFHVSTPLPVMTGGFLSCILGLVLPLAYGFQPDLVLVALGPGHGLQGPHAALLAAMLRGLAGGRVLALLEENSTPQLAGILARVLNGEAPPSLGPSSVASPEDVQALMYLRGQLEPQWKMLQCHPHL

[2] = molecular target: T2, HDAC1 (Homo sapiens, UniProt Q13547); assay: In vitro deacetylation assay, HDAC1 (RHKK substrate); format: biochemical; details: for IC50: purified human HDAC1, RHK[AcK]-AMC (RHKK) substrate; for SI (HD6/HD1) RHKK: ratio of IC50 HDAC1 (RHKK) divided by IC50 HDAC6
T2 construct: HDAC1 1-482 Addgene; Strep-FLAG-HALO (N); made in house; host or cells: HEK293/T17

[3] = system: tubulin acetylation; assay: Tubulin acetylation in RPMI-8226 cells by quantitative Western blotting; format: cell-based; details: Homo sapiens, RPMI-8226, 6 h; read-out: IC50 tubulin deacetylation (relative tubulin acetylation)
[4] = MTT viability assay; format: cell-based; details: human, RPMI-8226 lymphoblasts, RPMI-8226 cells, read-out: EC50 cytotoxicity (MTT viability)
Protocol: (§1) RPMI-8226 lymphoblasts (ATTC #CCL-155) were used to assess the cytotoxicity of tested compounds. […] Dilution series of tested inhibitors were prepared as 10x stock solutions in PBS and 10 μL was added to cells and incubated under a 5% CO2 atmosphere at 37 °C, for 2 days. Following incubation, 10 μL of MTT reagent (3-(4,5-dimethylthiazol-2-yl)-2,5-diphenyltetrazolium bromide, 5 mg/mL in PBS, Sigma Aldrich) was added to each well and incubated for 90 min, 37 °C, 5% CO2. […]

[5] = system: histone H3 acetylation; assay: Histone H3 (K9/K14) acetylation in RPMI-8226 cells by Western blotting; format: cell-based; details: 6 h, Western blot
[6] = system: all other HDAC isoforms; assay: In vitro isotype selectivity screening against panel of zinc-dependent human HDACs; format: biochemical
Protocol: Customized assays were used for individual HDAC isoforms to reflect their distinct substrate specificity. All reactions were carried out in the activity buffer comprising 50 mM HEPES, 140 mM NaCl, 10 mM KCl, pH 7.4 supplemented with 1 mg/mL bovine serum albumin (BSA) and 1 mM tris(2-carboxyethyl) phosphine (TCEP).
HDACs 1–9, 11: Assays were performed essentially as described previously. Briefly, the Ac-GAK-Ac-AMC substrate was used to determine the activity of HDACs 1, 2, 3, and 6; and the Boc-Lys(TFA)-AMC substrate was used for HDACs 4, 5, 7, 8, 9, and 11 (both substrates Bachem, Bubendorf, Switzerland). […] Released aminometyl coumarine was quantified using a CLARIOstar plate reader (BMG Labtech GmbH, Ortenberg, Germany) at λex/λem = 365/440 nm.
HDAC10: Recombinant human HDAC10 (0.5 nM) in the reaction buffer was preincubated with a 3-fold dilution series of a tested inhibitor at 37 °C for 15 min and the reaction initiated by the addition of a substrate (N8-acetylspermidine labeled with fluorescein; 10 µM final concentration) in a total volume of 50 µL. […] Reaction mixtures were analyzed by RP-HPLC with a Kinetex 2.6 μm XB-C18 100 Å column with a fluorescence detector set to λEX/λEM = 492/516.
HDAC inhibition was calculated using corresponding non-inhibited reactions as a control. […]

[7] = system: RPMI-8226 lymphoblasts; assay: MTT viability assay; format: cell-based; details: RPMI-8226 cells, 48 h, MTT
Protocol: as §1

T2 sequence (Q13547 whole entry): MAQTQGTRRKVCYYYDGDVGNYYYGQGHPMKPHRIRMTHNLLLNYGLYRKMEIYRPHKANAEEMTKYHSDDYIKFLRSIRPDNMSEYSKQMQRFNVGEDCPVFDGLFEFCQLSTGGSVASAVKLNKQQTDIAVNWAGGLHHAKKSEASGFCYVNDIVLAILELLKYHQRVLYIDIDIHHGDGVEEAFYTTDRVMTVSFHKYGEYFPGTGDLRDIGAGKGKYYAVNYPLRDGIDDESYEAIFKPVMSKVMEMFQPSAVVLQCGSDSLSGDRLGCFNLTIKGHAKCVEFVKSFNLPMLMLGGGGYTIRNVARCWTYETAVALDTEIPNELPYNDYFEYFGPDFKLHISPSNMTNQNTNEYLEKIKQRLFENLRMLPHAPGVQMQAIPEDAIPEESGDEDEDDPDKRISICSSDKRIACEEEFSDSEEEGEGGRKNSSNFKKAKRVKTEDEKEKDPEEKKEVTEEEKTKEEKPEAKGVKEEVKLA

| IC50 [1] [nM] | SI (HD6/HD10) [1] | IC50 [2] [µM] | SI (HD6/HD1) RHKK [2] | IC50 [3] [nM] | SMILES | EC50 at 48 h [4] [µM] | effect on histone H3 (K9/K14) acetylation, class I HDAC inhibition [5] | selectivity for HDAC6 over all other HDAC isoforms [6] | effect on cell viability [7] |
| --- | --- | --- | --- | --- | --- | --- | --- | --- | --- |
| 34 | 30.6 | 21.7 | 19,550 | 426 | O=C(NO)c1cnc(NC2(c3cccc(F)c3)CCCCC2)nc1 [ACY-775] | 8.6 | – | – | – |
| > 50000 | >25,000 | > 50 | >25,000 | 616 | CS(=O)(=O)N(Cc1ccc(-c2nnc(C(F)F)o2)cn1)c1cccc(Cl)c1 [compound 7, N-(3-chlorophenyl)-N-((5-(5-(difluoromethyl)-1,3,4-oxadiazol-2-yl)pyridin-2-yl)methyl)methanesulfonamide] | > 50 | does not increase H3 acetylation even at the highest concentrations | 10,000 fold and > 10,000 fold | less pronounced effects on cell viability at high inhibitor concentrations |
